In patent publication US20220096484A1, “METHODS AND COMPOSITIONS FOR TREATING CANCER BY TARGETING FATP2 AND MYELOID DERIVED SUPPRESSOR CELLS” (The Wistar Institute of Anatomy and Biology, priority 2019, published 2022):

Experiments:
[1] = tested on: LLC tumors; experiment: Growth of LLC tumors in mice (lipofermata alone, CD8 T cell depletion, combination with antibodies); type: in vivo, mouse
Procedure: (§1) FIG. 4A-FIG. 4E, Treatments with lipofermata (2 mg kg^−1 twice per day subcutaneously) started 8-10 days after tumor injection. Anti-CTLA4 antibody (200 μg per mouse, intraperitoneally) was administrated at days 7 and 11 after tumor injection, and anti-CSF1R antibody ([…] per mouse, intraperitoneally) was administered every other day, starting the day after tumor injection. FIG. 4A, Growth of indicated tumors in C57BL/6 mice treated with lipofermata. Representative of two independent experiments (n=4-5 mice per group). FIG. 4B, Growth of LLC tumors in NOD-SCID mice treated with lipofermata (n=5). FIG. 4C, Growth of LLC tumors in mice depleted of CD8 T cells and treated with lipofermata (n=5). FIG. 4D, Growth of LLC tumors in mice treated with anti-CTLA4 antibody and lipofermata (n=5). FIG. 4E, Growth of LLC tumors in mice treated with CSF1R inhibitor and lipofermata (n=5). Data are mean±se.m. *P<0.05, **P<0.01, ***P<0.001, ****P<0.0001 (differences from untreated […] and between treated groups), two-way ANOVA with corrections for multiple comparison. NS, not significant.
5×10^5 tumor cells were injected s.c. into mice, which formed tumors with a 1.5-cm diameter within 2-3 weeks of injection. Lipofermata was administrated s.c. at dose of 2 mg/kg twice per day. As a control, mice were treated with vehicle alone (DMSO+30% v/v Kolliphor). Treatments with lipofermata started 8-10 days after tumors injections. CSF1R antibody (BioXcell, 300 μg/mouse) was administered every other day starting next day after tumor injection and continued until the mice were sacrificed. PD-1 antibody (clone RMP1-14, BioXcell, 200 μg/mouse) was administered twice a week started 10-12 days after tumor injection. CTLA4-IgG2a (BioXcell, 200 μg/mouse) was administered at day 7 and day 11.
(§2) Statistical analysis was performed using unpaired two-tailed Student's t-test with significance determined at 0.05. […] Tumor growth was evaluated using two-way Anova test with Bonferroni correction for multiple comparisons.

[2] = tested on: LLC tumor cells; experiment: MTT assay after three-day incubation of tumor cells with lipofermata; type: cell-based; conditions: range of concentrations corresponding to the dose used in vivo (0.2 mg/ml)
Procedure: (§3) FIGS. 13A-FIG. 13E show the effect of lipofermata treatment on tumor-bearing mice. FIG. 13A, MTT assay after three-day incubation of tumor cells with indicated concentration of lipofermata. FIG. 13B, Percentage and absolute number of tumor-associated antigen (E7-derived peptide)-specific CD8^+ T cells in draining lymph nodes of mice bearing TC-1 tumor and treated with lipofermata (n=3). FIG. 13C, Growth of TC-1 tumors in mice treated with CTLA4 antibody and lipofermata (n=5). FIG. 13D, CD8^+ T cell infiltration of TC-1 tumors in mice treated with CTLA4 antibody and lipofermata. FIG. 13E, Growth of TC-1 tumors in mice treated with PD1 antibody and lipofermata (n=5). Data are mean±s.d. *P<0.05, **P<0.01, ***P<0.001, ****P<0.0001, two-sided Student's t-test (FIG. 13B) or two-way ANOVA test with correction for repeated measurements (FIG. 13E).
(§4) Tumor cell lines: EL4 (lymphoma), LLC (Lewis Lung Carcinoma), CT26 (colon carcinoma), TC-1 (HPV16 E6/E7 expressing tumor cell line) were obtained from ATCC and F244 (sarcoma) was kindly provided by Dr. R. Schreiber (Washington University, St. Lois, Mo.). All cells were maintained in DMEM medium supplemented with 10% fetal bovine serum (FBS, Sigma-Aldrich, St. Louis, Mo.) at 37° C., 5% CO2. Tumor cells were injected subcutaneously (s.c.) at 5×10^5 cells per mouse. […]

[3] = tested on: EL-4 tumor cells; experiment: as above; type: cell-based; conditions: EL-4 cells, range of concentrations corresponding to the dose used in vivo (0.2 mg/ml)
Procedure: as §3, §4

[4] = tested on: tumors in C57BL/6 mice; experiment: Growth of tumors in C57BL/6 mice treated with lipofermata (four tumor models); type: in vivo, mouse; conditions: four tested tumor models, lipofermata 2 mg/kg twice per day s.c., started 8-10 days after tumor injection
Procedure: as §1, with “significant. […]” for “significant.”
as §2

[5] = tested on: tumor-associated antigen (E7-derived peptide)-specific CD8+ T cells; experiment: Antigen specific CD8 T cells in draining lymph nodes of TC-1 tumor-bearing mice (MHC tetramer flow cytometry); type: in vivo, mouse; conditions: TC-1 model; lipofermata treatment
Procedure: as §3, with “Data are mean±s.d. *P<0.05, **P<0.01, ***P<0.001, ****P<0.0001, two-sided Student's t-test (FIG. 13B) or two-way ANOVA test with correction for repeated measurements (FIG. 13E).” left out
Lymph nodes (LNs) were obtained from TB mice and digested for 30 min at 37° C. with collagenase A (0.5 mg/ml; Sigma Aldrich), Dnase I (0.2 mg/ml, Roche), diluted in HBSS with Ca^2+/Mg^2+ and 20 mM EDTA (Invitrogen) was added 5 min at room temperature to stop the reaction. CD8^+ T cells were isolated from LNs of TB mice using EasySep Mouse CD8+ T Cell Enrichment Kit (STEMCELL) and stimulated with anti CD3 and anti CD28 antibodies (BD Biosciences) for 24 h and IFNγ was analyzed by ELISpot (Mabtech), accordingly to manufacturer's instructions. T cell proliferation was evaluated by flow cytometry using CSFE (BioLegend). […]

[6] = tested on: LLC tumors in NOD-SCID mice; experiment: Growth of LLC tumors in NOD-SCID mice treated with lipofermata; type: in vivo, mouse; conditions: lipofermata 2 mg/kg twice per day s.c.
Procedure: as §1
5×10^5 tumor cells were injected s.c. into mice, which formed tumors with a 1.5-cm diameter within 2-3 weeks of injection. Lipofermata was administrated s.c. at dose of 2 mg/kg twice per day. As a control, mice were treated with vehicle alone (DMSO+30% v/v Kolliphor). […]

Compound: O=C1Nc2ccc(Br)cc2C12NN=C(c1ccccc1)S2 (stereo not drawn) [lipofermata, 5′-bromo-5-phenyl-spiro[3H-1,3,4-thiadiazole-2,3′-indoline]-2′-one]
- antitumor effect (LLC tumor growth) ([1]; LLC bearing mice, lipofermata 2 mg/kg twice per day s.c., anti-CTLA4 200 μg/mouse days 7 and 11, CSF1R antibody 300 μg/mouse every other day): had an antitumor effect
- blocking of tumor progression ([1]; LLC bearing mice, single agents): neither blocked tumor progression
- tumor growth effect after depletion of CD8+ T cells ([1]; LLC tumors, immune competent mice depleted of CD8 T cells, lipofermata 2 mg/kg twice per day s.c.): abrogated the effect of lipofermata
- proliferation of tumor cells in vitro (MTT) [2]: did not affect proliferation
- proliferation of tumor cells in vitro (MTT) [3]: did not affect proliferation
- tumor growth [4]: significant delay of tumor growth
- absolute numbers of antigen specific T cells in draining lymph nodes [5]: increased
- percentage of antigen specific T cells in draining lymph nodes [5]: increased
- tumor growth delay effect in immune deficient mice [6]: this effect was absent
